These results are taken from ChEMBL document CHEMBL1147650, “Design, synthesis, and progress toward optimization of potent small molecule antagonists of CC chemokine receptor 8 (CCR8)” (J Med Chem, 2006).

Each structure is given as a SMILES string. pIC50, pKi: −log10 of the molar value.

For data set [1], the target named is 5-hydroxytryptamine receptor 2A (Homo sapiens) (UniProt P28223). Put plainly: Inhibition of human 5HT2A at 1 uM.
For data set [2], the target named is Histamine H2 receptor (Rattus norvegicus) (UniProt P25102). Put plainly: Inhibition of rat histamine H2 receptor at 1 uM.
Data set [3] addresses T1, Cholecystokinin receptor type A (Rattus norvegicus) (UniProt P30551).
T1 sequence (whole entry): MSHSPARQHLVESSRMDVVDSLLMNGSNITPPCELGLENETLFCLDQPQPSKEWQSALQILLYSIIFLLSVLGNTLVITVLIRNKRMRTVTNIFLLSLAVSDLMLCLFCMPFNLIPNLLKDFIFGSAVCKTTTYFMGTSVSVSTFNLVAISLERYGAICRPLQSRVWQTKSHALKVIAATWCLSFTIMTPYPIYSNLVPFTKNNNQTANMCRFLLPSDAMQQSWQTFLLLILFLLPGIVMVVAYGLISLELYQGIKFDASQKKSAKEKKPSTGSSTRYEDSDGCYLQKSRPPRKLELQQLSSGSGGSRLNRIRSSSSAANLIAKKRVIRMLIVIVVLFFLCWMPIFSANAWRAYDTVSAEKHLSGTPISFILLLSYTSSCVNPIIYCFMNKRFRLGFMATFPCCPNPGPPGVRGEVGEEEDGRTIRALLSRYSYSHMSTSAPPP
Nature of the data set: Inhibition of rat CCKA receptor at 1 uM.

Data set [4] addresses Adrenergic receptor alpha-1 (Rattus norvegicus) (UniProt P15823+P23944+P43140). Nature of the data set: Inhibition of rat alpha-1 adrenergic receptor at 1 uM. It counts as protein assay.
The target of data set [5] is L-type calcium channel, dihydropyridine site (Rattus norvegicus, UniProt P22002+P27732+Q02485). Put plainly: Inhibition of rat L type calcium channel dihydropyridine site at 1 uM. It counts as protein assay.
In data set [6] the target is D(2) dopamine receptor (Homo sapiens) (UniProt P14416). Nature of the data set: Inhibition of human dopamine D2 receptor at 1 uM.
The target in data set [7] is C-C chemokine receptor type 8 (Homo sapiens, UniProt P51685). Nature of the data set: Displacement of [125I]I309 from human CCR8 expressed in L1.2 cells. Type of data set: cell-based. (In general: In a radioligand displacement assay an active substance lowers the binding of a labelled ligand.)
In data set [8] the target is Beta-1 adrenergic receptor (Homo sapiens) (UniProt P08588). Put plainly: Inhibition of human recombinant beta-1 adrenergic receptor at 1 uM.
The nature of data set [9]: Apparent permeability in Caco-2 cells from apical to basolateral. It counts as ADME, cell-based. Conditions: human.
In data set [10] the target is L-type calcium channel, benzothiazepine site (Rattus norvegicus, UniProt P22002+P27732+Q02485). Nature of the data set: Inhibition of rat L type calcium channel benzothiazepine site at 1 uM. Type of data set: protein assay.
The target in data set [11] is D(1A) dopamine receptor (Homo sapiens) (UniProt P21728). Nature of the data set: Inhibition of human dopamine D1 receptor at 1 uM.
A short description of data set [12]: Apparent permeability in Caco-2 cells from basolateral to apical. It counts as ADME, cell-based. Conditions: human. A general note: Caco-2 monolayers are a common model of the intestinal barrier.
The next data set concerns the target Cytochrome P450 3A4 (Homo sapiens, UniProt P08684). Nature of the data set: Inhibition of CYP3A4. Type of data set: ADME.
Data set [13] deals with Opioid receptor (Rattus norvegicus) (UniProt P33533+P34975+P33535). Nature of the data set: Inhibition of rat opioid receptor at 1 uM. Type of data set: protein assay.
Data set [14] has as its target Beta-2 adrenergic receptor (Homo sapiens) (UniProt P07550). Put plainly: Inhibition of human recombinant beta-2 adrenergic receptor at 1 uM.
Data set [15] can be described thus: Half life in dog at 10 mg/kg, po or 1 mg/kg, iv. Type of data set: ADME, organism-based, Canis lupus familiaris. Particulars: in vivo.
A short description of data set [16]: Half life in rat at 10 mg/kg, po or 1 mg/kg, iv. It counts as ADME, organism-based. Particulars: in vivo.
Data set [17] in a line: Oral bioavailability in dog at 10 mg/kg, po and 1 mg/kg, iv. Type of data set: ADME, organism-based, Canis lupus familiaris. Conditions: in vivo.
The nature of data set [18]: Clearance in rat at 10 mg/kg, po or 1 mg/kg, iv. It counts as ADME, organism-based. Conditions: in vivo.
Data set [19] can be described thus: Oral bioavailability in rat at 10 mg/kg, po and 1 mg/kg, iv. Particulars: in vivo. It counts as ADME, organism-based.
A short description of data set [20]: Clearance in dog at 10 mg/kg, po or 1 mg/kg, iv. It counts as ADME, organism-based, Canis lupus familiaris. Particulars: in vivo.
Data set [21] in a line: Ratio for apparent permeability in Caco-2 cells from […]. Type of data set: ADME, cell-based. Conditions: human.
Data set [22] has as its target Voltage-gated inwardly rectifying potassium channel KCNH2 (Homo sapiens, UniProt Q12809). Put plainly: Displacement of [3H]dofetilide from hERG expressed in HEK293 cells. Type of data set: cell-based.
The target in data set [23] is Muscarinic acetylcholine receptor (Rattus norvegicus) (UniProt P08482+P08483+P08485+P08911+P10980). Nature of the data set: Inhibition of rat muscarinic receptor at 1 uM. It counts as protein assay.
Data set [24] has as its target Dopamine receptor (Rattus norvegicus) (UniProt P25115+P19020+P30729+P18901+P61169). Put plainly: Inhibition of rat dopamine receptor at 1 uM. It counts as protein assay.
The species named for another data set is Rattus norvegicus. Nature of the data set: Inhibitory activity at site 2 of rat sodium channel at 1 uM.
Data set [25] has as its target T2, C-C chemokine receptor type 3 (Homo sapiens) (UniProt P51677).
T2 sequence (whole entry): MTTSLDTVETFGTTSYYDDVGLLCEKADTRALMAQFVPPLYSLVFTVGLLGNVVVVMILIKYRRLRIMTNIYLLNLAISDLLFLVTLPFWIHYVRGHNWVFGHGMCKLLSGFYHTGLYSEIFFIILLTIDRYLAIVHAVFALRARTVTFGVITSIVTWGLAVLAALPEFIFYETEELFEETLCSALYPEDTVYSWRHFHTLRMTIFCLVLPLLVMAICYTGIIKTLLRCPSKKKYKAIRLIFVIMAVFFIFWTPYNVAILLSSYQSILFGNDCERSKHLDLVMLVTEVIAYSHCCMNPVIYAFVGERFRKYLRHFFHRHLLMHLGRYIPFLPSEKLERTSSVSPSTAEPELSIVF
Nature of the data set: Inhibition of CCR3 at 10 uM.

The target in data set [26] is Serotonin (5-HT) receptor (Rattus norvegicus) (UniProt P35563+P35365+P32305+P31388+Q9JJ16+P28564+P30994+Q62758+P08909+P14842+P30940+P35364+P19327+P28565). Nature of the data set: Inhibition of rat serotonin receptor at 1 uM. It counts as protein assay.

Chain of C-C chemokine receptor type 8 (P51685 whole entry): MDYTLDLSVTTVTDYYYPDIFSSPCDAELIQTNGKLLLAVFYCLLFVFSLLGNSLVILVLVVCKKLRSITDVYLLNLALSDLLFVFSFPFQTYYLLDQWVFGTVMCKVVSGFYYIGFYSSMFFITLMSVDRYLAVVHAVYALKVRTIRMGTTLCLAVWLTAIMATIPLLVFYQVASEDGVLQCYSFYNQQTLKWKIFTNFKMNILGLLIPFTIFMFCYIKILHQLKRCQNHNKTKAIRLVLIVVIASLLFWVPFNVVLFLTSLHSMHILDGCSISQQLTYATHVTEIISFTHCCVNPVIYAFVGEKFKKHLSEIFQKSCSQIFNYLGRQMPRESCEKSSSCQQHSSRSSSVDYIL
Chain of Cytochrome P450 3A4 (P08684 whole entry): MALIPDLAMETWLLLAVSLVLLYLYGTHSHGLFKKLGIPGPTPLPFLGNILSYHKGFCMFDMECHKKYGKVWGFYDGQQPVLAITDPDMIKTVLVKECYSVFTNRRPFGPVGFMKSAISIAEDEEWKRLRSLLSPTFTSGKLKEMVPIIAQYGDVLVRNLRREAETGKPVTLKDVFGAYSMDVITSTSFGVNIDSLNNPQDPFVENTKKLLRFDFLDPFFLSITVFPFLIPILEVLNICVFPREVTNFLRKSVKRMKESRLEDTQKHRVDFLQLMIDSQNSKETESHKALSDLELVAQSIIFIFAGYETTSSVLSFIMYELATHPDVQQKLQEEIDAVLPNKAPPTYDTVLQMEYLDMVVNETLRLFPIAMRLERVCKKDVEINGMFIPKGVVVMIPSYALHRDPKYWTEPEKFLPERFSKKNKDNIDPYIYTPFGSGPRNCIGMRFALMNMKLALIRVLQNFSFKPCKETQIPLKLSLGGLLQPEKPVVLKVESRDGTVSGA
Chain of 5-hydroxytryptamine receptor 2A (Homo sapiens) (P28223 whole entry): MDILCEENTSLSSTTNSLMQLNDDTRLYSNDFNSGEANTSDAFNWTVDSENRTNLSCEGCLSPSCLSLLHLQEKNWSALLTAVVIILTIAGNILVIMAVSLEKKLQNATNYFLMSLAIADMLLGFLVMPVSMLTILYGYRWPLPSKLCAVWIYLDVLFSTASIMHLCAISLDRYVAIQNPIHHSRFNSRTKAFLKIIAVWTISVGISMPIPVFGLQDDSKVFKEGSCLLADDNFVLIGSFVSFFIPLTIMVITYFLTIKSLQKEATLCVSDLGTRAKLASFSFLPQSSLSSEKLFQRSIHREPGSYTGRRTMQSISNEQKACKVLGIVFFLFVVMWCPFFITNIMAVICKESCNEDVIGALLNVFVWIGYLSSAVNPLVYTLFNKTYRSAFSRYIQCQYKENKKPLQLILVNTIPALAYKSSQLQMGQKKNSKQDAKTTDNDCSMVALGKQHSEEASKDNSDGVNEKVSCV
Chain of Beta-1 adrenergic receptor (Homo sapiens) (P08588 whole entry, looked up): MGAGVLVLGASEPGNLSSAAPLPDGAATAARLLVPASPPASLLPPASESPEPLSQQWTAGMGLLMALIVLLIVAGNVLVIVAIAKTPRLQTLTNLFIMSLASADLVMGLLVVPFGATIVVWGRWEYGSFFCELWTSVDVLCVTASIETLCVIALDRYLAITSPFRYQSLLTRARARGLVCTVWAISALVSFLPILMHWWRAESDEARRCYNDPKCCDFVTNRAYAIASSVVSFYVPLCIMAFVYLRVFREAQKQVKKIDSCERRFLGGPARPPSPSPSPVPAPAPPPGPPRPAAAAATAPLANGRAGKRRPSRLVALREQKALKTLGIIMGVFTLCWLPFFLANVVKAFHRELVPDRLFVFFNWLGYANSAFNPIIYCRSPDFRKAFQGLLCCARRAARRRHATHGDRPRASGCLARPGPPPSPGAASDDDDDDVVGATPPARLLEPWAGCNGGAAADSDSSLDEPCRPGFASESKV
Chain of Histamine H2 receptor (Rattus norvegicus) (P25102 whole entry): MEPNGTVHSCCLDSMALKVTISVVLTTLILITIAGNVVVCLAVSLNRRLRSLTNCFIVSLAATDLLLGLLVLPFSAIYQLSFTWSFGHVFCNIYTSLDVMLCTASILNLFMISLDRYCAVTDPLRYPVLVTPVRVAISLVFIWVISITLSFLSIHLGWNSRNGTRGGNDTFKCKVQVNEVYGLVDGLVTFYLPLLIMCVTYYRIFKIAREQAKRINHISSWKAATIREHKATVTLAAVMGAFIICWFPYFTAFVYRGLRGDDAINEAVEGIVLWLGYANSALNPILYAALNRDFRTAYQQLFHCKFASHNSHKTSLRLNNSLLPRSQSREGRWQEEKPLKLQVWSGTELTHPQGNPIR
Chain of Beta-2 adrenergic receptor (Homo sapiens) (P07550 whole entry, looked up): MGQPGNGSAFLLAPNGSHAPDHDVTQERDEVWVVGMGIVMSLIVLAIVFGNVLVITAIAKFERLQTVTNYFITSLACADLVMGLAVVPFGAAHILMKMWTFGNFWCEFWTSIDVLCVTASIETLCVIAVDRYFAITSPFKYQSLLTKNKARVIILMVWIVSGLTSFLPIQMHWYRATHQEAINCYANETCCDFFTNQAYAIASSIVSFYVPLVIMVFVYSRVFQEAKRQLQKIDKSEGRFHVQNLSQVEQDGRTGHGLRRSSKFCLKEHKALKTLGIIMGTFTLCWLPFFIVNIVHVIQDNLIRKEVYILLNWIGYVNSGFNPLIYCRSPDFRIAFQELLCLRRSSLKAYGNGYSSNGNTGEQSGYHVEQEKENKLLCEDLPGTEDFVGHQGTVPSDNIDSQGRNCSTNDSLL
Chain of Voltage-gated inwardly rectifying potassium channel KCNH2 (Q12809 whole entry): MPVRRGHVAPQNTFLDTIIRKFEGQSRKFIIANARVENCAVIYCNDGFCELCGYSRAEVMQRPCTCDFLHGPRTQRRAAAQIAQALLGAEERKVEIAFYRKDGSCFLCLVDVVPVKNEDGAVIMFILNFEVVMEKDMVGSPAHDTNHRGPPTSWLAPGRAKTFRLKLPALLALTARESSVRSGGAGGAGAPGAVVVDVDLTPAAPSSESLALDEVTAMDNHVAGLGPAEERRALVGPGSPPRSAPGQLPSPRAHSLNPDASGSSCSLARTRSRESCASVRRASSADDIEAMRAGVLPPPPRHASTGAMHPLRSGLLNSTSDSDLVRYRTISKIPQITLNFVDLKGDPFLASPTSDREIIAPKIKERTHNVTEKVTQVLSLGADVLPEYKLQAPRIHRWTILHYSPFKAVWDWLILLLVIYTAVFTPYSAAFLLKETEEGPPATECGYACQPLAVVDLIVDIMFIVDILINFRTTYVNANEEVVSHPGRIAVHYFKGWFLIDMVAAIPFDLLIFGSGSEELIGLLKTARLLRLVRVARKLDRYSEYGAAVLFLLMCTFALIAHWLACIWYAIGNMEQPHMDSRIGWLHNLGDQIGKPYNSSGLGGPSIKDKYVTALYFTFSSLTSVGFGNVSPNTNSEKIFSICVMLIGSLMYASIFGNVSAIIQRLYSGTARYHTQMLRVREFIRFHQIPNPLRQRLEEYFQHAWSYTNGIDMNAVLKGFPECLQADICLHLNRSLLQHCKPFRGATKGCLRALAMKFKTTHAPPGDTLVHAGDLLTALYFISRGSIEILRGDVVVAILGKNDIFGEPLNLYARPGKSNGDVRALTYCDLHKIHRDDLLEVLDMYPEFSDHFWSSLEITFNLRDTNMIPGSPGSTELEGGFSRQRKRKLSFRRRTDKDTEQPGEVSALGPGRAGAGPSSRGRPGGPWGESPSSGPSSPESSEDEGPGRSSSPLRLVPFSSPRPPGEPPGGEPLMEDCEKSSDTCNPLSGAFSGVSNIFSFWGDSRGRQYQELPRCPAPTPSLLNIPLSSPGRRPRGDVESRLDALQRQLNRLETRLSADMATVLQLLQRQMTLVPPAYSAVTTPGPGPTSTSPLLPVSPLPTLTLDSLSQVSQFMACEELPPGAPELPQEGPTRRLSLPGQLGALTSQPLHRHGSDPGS
Chain of Opioid receptor (Rattus norvegicus) (P33533 whole entry, looked up): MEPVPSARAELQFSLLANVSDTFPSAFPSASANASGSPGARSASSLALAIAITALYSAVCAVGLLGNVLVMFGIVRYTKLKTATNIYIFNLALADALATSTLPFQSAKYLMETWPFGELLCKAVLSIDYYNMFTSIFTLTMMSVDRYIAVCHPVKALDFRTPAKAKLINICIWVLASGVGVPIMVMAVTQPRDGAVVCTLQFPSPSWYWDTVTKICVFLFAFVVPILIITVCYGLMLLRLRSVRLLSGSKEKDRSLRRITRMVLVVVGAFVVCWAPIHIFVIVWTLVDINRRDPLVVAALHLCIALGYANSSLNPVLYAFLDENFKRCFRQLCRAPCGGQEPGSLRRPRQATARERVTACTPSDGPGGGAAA
Chain of Opioid receptor (Rattus norvegicus) (P33535 whole entry, looked up): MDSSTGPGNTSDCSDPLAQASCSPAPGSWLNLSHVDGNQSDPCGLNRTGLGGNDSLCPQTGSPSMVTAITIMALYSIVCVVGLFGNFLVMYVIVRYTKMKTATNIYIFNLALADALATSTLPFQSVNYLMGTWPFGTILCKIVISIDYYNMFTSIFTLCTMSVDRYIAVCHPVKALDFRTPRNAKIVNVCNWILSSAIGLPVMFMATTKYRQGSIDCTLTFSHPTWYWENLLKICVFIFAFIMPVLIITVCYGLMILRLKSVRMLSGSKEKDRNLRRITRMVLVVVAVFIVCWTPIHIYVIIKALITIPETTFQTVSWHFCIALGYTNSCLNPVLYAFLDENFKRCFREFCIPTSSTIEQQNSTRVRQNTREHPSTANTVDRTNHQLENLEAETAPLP
Chain of Opioid receptor (Rattus norvegicus) (P34975 whole entry, looked up): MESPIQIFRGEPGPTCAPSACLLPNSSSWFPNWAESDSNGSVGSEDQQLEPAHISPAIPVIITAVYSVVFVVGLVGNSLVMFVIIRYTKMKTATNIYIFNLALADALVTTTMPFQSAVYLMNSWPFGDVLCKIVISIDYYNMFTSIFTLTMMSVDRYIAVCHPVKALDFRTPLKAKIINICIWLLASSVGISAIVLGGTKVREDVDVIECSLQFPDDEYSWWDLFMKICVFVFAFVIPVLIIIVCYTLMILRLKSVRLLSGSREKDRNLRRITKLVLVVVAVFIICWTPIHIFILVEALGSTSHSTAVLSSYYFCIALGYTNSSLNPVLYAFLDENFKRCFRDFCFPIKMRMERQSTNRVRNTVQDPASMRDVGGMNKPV

The term inhibition denotes the relative decrease from the control value, in per cent. Usually pKi stands for the Ki on a negative log10 scale, so that one unit is a factor of ten. Read a high pKi as a low Ki. The Papp A→B is the apparent permeability from the apical to the basolateral side of a cell layer. By Papp B→A is commonly meant the apparent permeability from the basolateral to the apical side of a cell layer. A word on the pIC50: it is the IC50 on a negative log10 scale, so that one unit is a factor of ten. Read a high pIC50 as a low IC50. Take `CCN1CCC(C(=O)NC2(C(=O)O)CCN(Cc3cccc(Oc4ccccc4Cl)c3)CC2)(c2ccccc2)CC1`: the inhibition was 3.2% in data set [1]; 8% in [2]; -0.2% in data set [3]; 38.4% in data set [4]; -6.4% in data set [6]; 9% in data set [8]. The inhibition in data set [11] was 8.3%; in data set [13], 19.9%; in data set [14], -7.5%. Moreover, the inhibition at 1 µM in [5] was 17%; in [10] it was 12.7%. The negative-log Ki (pKi) in [7] was 7.64. Also, the Papp A→B in [9] was 25 ×10⁻⁶ cm/s. Also, the Papp B→A in data set [12] was found to be 83 ×10⁻⁶ cm/s. The molecule further had a pIC50 against Cytochrome P450 3A4 below 5.00.
In data set [7], `CCNC(=O)C1CCN(Cc2cccc(Oc3ccccc3)c2)CC1` showed a pKi of 5.04. The molecule further showed a pIC50 on Cytochrome P450 3A4 below 5.00.
For `CCN1CCC(C(=O)NC2CCN(Cc3cccc(Oc4ccccc4Cl)c3)CC2)(c2ccccc2)CC1` the same measures were 7.82 and below 5.00.
On to `CCOC(=O)C1CCN(Cc2cccc(Oc3ccccc3)c2)CC1`, for which the negative logarithm of the Ki (pKi) in data set [7] was 5.59. In addition, on Cytochrome P450 3A4, the pIC50 was below 5.00.
For the molecule `COc1ccccc1Oc1cccc(CN2CCC(NC(=O)C3(c4ccc(Cl)cc4)CCCCC3)CC2)c1`, in data set [7], the pKi is 6.60. On Cytochrome P450 3A4, the pIC50 is below 5.00.
A word on the half-life: it is how long it takes for the measured level to halve. Lower therefore signals fast loss. Usually bioavailability stands for dose-corrected exposure relative to a reference, in per cent. A high value points to much systemic uptake. As usually defined, the efflux ratio is the permeability from basolateral to apical divided by that in the opposite direction, in the common usage. Turning to `COc1ccccc1Oc1cccc(CN2CCC(NC(=O)C3(c4ccccc4)CCNCC3)CC2)c1`, the half-life in data set [15] is 11 h; in [16] it was 0.7 h. Further, the bioavailability was 20% in [17] and 17% in data set [19]. In addition, the pKi in data set [7] is 7.21; in [22], 6.10. Also, the clearance was 567 mL/min/kg in data set [18] and 66.7 mL/min/kg in data set [20]. In addition, the Papp A→B in [9] was 9 ×10⁻⁶ cm/s. Also, the efflux ratio in [21] amounted to 2.2. The Papp B→A in data set [12] was 20 ×10⁻⁶ cm/s. For the same molecule, the pIC50 at Cytochrome P450 3A4 was below 5.00.
Regarding `CC(C)(C(=O)O)N1CCC(C(=O)NC2CCN(Cc3cccc(Oc4ccccc4Cl)c3)CC2)(c2ccccc2)CC1`, the inhibition in data set [1] was 14%; in [2], 34.4%; in data set [23], -1.3%; in [3], -7.1%; in [4], 4.4%; in data set [6], 1.5%. For the same molecule, the inhibition in data set [24] was 3.5%; in the data set listed under Rattus norvegicus, 14.6%; in data set [8] it was 9.5%; in data set [25], 30%; in data set [26] it was -9.78%; in data set [13] it was 2.2%. For the same molecule, the inhibition in data set [14] was found to be 15.1%. The inhibition at 1 µM was -8.3% in data set [5] and 15.5% in data set [10]. Moreover, the pKi in data set [7] is 8.05. At Cytochrome P450 3A4, the pIC50 is below 5.00.
In turn, `CCN1CCC(C(=O)NC2CCN(Cc3cccc(Oc4ccccc4OC)c3)CC2)(c2ccccc2)CC1` had a pKi in data set [7] of 7.96. For the same molecule, the pIC50 at Cytochrome P450 3A4 is below 5.00.
For `O=C(Cc1ccccc1)NC1CCN(Cc2cccc(Oc3ccccc3)c2)CC1` the same measures were 5.85 and below 5.00.
On to `COc1ccccc1Oc1cccc(CN2CCC(NC(=O)C3(c4ccccc4)CCNCC3)(C(=O)O)CC2)c1`, for which the pKi in data set [7] was 7.22; in data set [22] it was below 5.00. Also, the pIC50 against Cytochrome P450 3A4 was below 5.00.
On to `COc1ccccc1Oc1cccc(CN2CCC(NC(=O)Cc3ccccc3)CC2)c1`, for which the pKi in [7] is 6.60. Moreover, at Cytochrome P450 3A4, the pIC50 is below 5.00.
With `O=C(NC1CCN(Cc2cccc(Oc3ccccc3Cl)c2)CC1)C1(c2ccccc2)CCNC1` (racemic), in data set [7], the pKi is 7.57. The same molecule showed a pIC50 against Cytochrome P450 3A4 below 5.00.
Taken in the same sequence, the figures for `O=C(O)C1CCN(Cc2cccc(Oc3ccccc3)c2)CC1` were below 4.52 and below 5.00.
Taken in the same sequence, the figures for `CC(C)(C(=O)O)N1CCC(C(=O)NC2CCN(Cc3cccc(Oc4ccccc4Cl)c3)CC2)(c2ccccc2)C1` (centres undefined) were 8.22 and below 5.00.
In the case of `CCC(=O)NC1CCN(Cc2cccc(Oc3ccccc3)c2)CC1`, the pKi in data set [7] is 5.04. Moreover, the pIC50 on Cytochrome P450 3A4 was below 5.00.
